# Laboratory results published in publication PMC3418399 (Molecular microbiology, 2012).
# Entries after “also recorded” stand apart in the source; their conditions may differ. Non-standard residues stand in square brackets, D forms with d.
# Tests used:
# human red blood cells = assay: Hemolysis; assay type: cell-based
# [1] = tested on: human epithelial (HEp2) cells; assay: Toxicity for cultured human epithelial cells; assay type: cell-based
# [2] = molecular target: CaCdr1p-mediated rhodamine 6G efflux in AD/CaCDR1 cells (Candida albicans, UniProt P43071); assay: Glucose-dependent rhodamine 6G efflux in whole cells; assay type: cell-based
# CaCdr1p-mediated rhodamine 6G efflux in AD/CaCDR1 cells, sequence (P43071 whole entry, the tested form may be a part): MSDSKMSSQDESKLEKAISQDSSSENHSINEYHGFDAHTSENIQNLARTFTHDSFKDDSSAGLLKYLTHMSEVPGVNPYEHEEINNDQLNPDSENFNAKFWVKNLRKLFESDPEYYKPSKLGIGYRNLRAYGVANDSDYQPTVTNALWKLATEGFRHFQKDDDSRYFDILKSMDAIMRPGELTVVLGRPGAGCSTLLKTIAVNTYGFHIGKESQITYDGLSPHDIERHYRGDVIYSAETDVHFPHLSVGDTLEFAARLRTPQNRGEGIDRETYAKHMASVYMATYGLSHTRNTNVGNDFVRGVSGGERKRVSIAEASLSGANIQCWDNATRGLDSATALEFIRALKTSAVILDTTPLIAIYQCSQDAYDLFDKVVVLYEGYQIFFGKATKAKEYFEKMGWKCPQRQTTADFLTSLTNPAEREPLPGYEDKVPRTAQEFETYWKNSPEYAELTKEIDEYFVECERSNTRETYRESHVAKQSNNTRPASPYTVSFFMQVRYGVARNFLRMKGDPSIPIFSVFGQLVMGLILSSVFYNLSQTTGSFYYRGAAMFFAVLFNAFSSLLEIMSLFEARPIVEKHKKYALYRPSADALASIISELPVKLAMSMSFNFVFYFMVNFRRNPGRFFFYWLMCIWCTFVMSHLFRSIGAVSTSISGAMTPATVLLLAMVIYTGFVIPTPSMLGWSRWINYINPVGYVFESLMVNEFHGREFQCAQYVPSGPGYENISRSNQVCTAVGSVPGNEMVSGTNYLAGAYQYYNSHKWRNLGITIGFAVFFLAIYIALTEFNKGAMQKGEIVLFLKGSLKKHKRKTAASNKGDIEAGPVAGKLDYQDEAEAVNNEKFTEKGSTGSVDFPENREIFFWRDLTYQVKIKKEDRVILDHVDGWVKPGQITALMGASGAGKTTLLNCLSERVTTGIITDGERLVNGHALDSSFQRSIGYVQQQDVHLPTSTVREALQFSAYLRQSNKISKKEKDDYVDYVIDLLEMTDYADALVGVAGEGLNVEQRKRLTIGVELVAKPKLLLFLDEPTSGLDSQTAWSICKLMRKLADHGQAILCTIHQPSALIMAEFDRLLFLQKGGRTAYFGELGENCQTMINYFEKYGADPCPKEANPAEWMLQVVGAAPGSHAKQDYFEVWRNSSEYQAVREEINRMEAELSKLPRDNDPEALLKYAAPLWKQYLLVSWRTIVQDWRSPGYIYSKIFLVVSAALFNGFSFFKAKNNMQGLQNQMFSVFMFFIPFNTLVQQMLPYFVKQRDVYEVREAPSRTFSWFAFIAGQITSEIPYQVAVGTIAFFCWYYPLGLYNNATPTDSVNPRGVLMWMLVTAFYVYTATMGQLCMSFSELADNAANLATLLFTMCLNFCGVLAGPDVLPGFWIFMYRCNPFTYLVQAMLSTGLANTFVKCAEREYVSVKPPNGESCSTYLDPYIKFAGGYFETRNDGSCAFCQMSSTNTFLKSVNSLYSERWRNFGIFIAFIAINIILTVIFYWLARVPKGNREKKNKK
# [3] = tested on: AD/CDR1 (Wild type CaCdr1p; AD/CaCDR1B); assay: Agarose diffusion FLC chemosensitization assay; assay type: cell-based, Saccharomyces cerevisiae; settings: for chemosensitization of cells overexpressing CaCdr1p to FLC: ~6 nmole/disk, FLC 40 μg ml^−1
# Pma1p ATPase = molecular target: T1, Pma1p ATPase (Saccharomyces cerevisiae, UniProt P05030); assay: Pma1p ATPase assay; assay type: biochemical; settings: read-out: IC50 Pma1p ATPase; pH 7.0, 10 μM oligomycin
# T1 sequence (P05030 1-918): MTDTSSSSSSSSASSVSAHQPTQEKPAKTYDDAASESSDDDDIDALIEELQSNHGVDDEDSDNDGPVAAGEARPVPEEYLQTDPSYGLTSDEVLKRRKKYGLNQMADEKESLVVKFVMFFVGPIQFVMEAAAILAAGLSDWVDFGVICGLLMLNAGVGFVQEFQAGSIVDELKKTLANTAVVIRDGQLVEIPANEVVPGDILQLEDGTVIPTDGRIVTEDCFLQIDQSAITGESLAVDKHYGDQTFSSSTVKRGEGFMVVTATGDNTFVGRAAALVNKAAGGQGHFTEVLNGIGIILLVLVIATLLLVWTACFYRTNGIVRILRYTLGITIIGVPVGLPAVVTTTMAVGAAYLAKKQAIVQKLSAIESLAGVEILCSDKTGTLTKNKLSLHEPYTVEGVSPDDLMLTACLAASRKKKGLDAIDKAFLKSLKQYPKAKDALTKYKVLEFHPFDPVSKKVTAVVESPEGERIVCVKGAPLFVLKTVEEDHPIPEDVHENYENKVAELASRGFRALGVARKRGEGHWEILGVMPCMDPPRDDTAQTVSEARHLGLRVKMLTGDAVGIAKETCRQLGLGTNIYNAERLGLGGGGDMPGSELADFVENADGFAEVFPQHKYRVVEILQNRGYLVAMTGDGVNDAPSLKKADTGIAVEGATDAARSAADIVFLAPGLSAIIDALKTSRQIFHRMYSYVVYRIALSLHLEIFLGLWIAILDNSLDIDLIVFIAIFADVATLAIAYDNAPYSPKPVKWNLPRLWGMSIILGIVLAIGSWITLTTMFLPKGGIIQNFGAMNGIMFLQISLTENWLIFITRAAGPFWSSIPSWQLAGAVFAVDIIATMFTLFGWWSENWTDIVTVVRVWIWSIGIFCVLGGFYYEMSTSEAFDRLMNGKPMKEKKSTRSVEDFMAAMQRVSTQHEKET
# [4] = tested on: S. cerevisiae AD/CaCDR1 variants; assay: Spontaneous variants resistant to FLC chemosensitization; assay type: cell-based, Saccharomyces cerevisiae
compound,measurement,setting,value
C[C@@H]1[C@H](O)[C@@H](C)/C=C/C=C/C=C/C=C/C=C/C=C/C=C/[C@H](O[C@@H]2O[C@H](C)[C@@H](O)[C@H](N)[C@@H]2O)C[C@@H]2O[C@](O)(C[C@@H](O)C[C@@H](O)[C@H](O)CC[C@@H](O)C[C@@H](O)CC(=O)O[C@H]1C)C[C@H](O)[C@H]2C(=O)O [Amphotericin B],concentration causing complete lysis of red blood cells,human red blood cells; human,3 µM
same,concentration rendering human epithelial cells inviable,[1]; human,15 µM
D-NH2-FFKW(Mtr)QRRR-CONH2 [RC21v1],concentration required to obtain a significant effect on R6G efflux,"[2]; effect independent of glucose, non-specific membrane permeabilization",At least 40 μM
same,chemosensitization of CaCdr1p-dependent FLC resistance,"[3]; agarose diffusion assays, amount not stated (partly data not shown)",ineffective
same,chemosensitization of cells overexpressing CaCdr1p to FLC,[3]; agarose diffusion,inactive
D-NH2-FFKWQRRR-CONH2 (H-[dF][dF][dK][dW][dQ][dR][dR][dR]-NH2),IC50,Pma1p ATPase,5 µM
RC21v2: HPLC-purified RC21 derivative with a single Mtr group attached to one of its three C-terminal arginine residues (FFKWQRRR),inhibition of glucose-dependent R6G efflux,"[2]; 1.25 μM, after 5 minutes of preincubation",fully inhibited
same,IC50,Pma1p ATPase,5 µM
same,lysis of red blood cells,human red blood cells; ≤100 μM,did not lyse; also recorded: did not hemolyse
same,chemosensitization of yeast over-expressing CaCdr1p to FLC,"[3]; ~5.5 nmol per disk, agarose diffusion",chemosensitized
same,chemosensitization of cells overexpressing CaCdr1p to FLC,[3]; agarose diffusion,chemosensitized
same,Resistance to FLC chemosensitization,"[4]; variant R1, Q714K, External loop 3",High
same,Resistance to FLC chemosensitization,"[4]; variant R2, Q1445K, External loop 6",High
same,Resistance to FLC chemosensitization,"[4]; variant R3, Q1226K, External loop 4",High
same,Resistance to FLC chemosensitization,"[4]; variant R4, Q1226K, External loop 4",High
same,effect on growth or viability of a human epithelial cell line,[1]; 100 μM (≤100 μM in Fig. 7 legend),did not affect; also recorded: did not kill
